Measured values published in ChEMBL document CHEMBL1135359, “Antifungal sordarins. Synthesis and structure-activity relationships of 3',4'-fused dioxolane and dioxane derivatives” (2002).
≈ marks a conversion by molar mass, not a printed value.

Tests used:
Assay type in all cases: functional
Nakaseomyces glabratus = experiment: In vitro antifungal activity for Candida glabrata 2375E
Candida albicans [1] = experiment: In vitro antifungal activity for Candida albicans 2005E
Candida albicans [2] = experiment: In vitro antifungal activity for Candida albicans 4711E
Kluyveromyces marxianus = experiment: In vitro antifungal activity for Candida pseudotropicalis 2371E
Candida tropicalis = experiment: In vitro antifungal activity for Candida tropicalis 2808E
Cryptococcus neoformans = experiment: In vitro antifungal activity for Cryptococcus neoformans 2867E
Candida albicans [3] = experiment: In vitro antifungal activity for Candida albicans 2402E

Structure (SMILES) | MIC (Nakaseomyces glabratus) | MIC (Candida albicans [1]) | MIC (Candida albicans [2]) | MIC (Kluyveromyces marxianus) | MIC (Candida tropicalis) | MIC (Cryptococcus neoformans) | MIC (Candida albicans [3])
CC1O[C@H]2[C@H](C[C@H](OCC34C[C@@H]5[C@H](C)CC[C@H]5C5(C=O)CC3C=C(C(C)C)C45C(=O)O)O[C@@H]2C)O1 (stereo partly specified) | 8 µg/mL (≈ 16.4 µM) | < 0.001 µg/mL | < 0.001 µg/mL | 0.004 µg/mL (≈ 0.00819 µM) | 0.03 µg/mL (≈ 0.0614 µM) | 31 µg/mL (≈ 63.4 µM) | –
CC(C)C1=CC2CC3(C=O)[C@@H]4CC[C@@H](C)[C@H]4CC2(CO[C@H]2C[C@@H]4OC(=O)O[C@@H]4[C@@H](C)O2)C13C(=O)O (stereo partly specified) | 8 µg/mL (≈ 16.4 µM) | 1 µg/mL (≈ 2.05 µM) | 2 µg/mL (≈ 4.09 µM) | 1 µg/mL (≈ 2.05 µM) | 2 µg/mL (≈ 4.09 µM) | 16 µg/mL (≈ 32.7 µM) | 4 µg/mL (≈ 8.19 µM)
CC(C)C1=CC2CC3(C=O)[C@@H]4CC[C@@H](C)[C@H]4CC2(CO[C@H]2C[C@@H]4OC(C)(C)O[C@@H]4[C@@H](C)O2)C13C(=O)O (stereo partly specified) | 31 µg/mL (≈ 61.7 µM) | < 0.001 µg/mL | 0.004 µg/mL (≈ 0.00796 µM) | 0.004 µg/mL (≈ 0.00796 µM) | 0.12 µg/mL (≈ 0.239 µM) | 8 µg/mL (≈ 15.9 µM) | 0.008 µg/mL (≈ 0.0159 µM)
CC1OC2[C@H](O)[C@H](OCC34C[C@@H]5[C@H](C)CC[C@H]5C5(C=O)CC3C=C(C(C)C)C45C(=O)O)O[C@H](C)[C@H]2O1 (single isomer, unassigned) | 62 µg/mL (≈ 123 µM) | 0.03 µg/mL (≈ 0.0595 µM) | 0.5 µg/mL (≈ 0.991 µM) | 0.5 µg/mL (≈ 0.991 µM) | 1 µg/mL (≈ 1.98 µM) | 16 µg/mL (≈ 31.7 µM) | –
CC(C)C1=CC2CC3(C=O)[C@@H]4CC[C@@H](C)[C@H]4CC2(CO[C@@H]2O[C@H](C)[C@H]4OC(C)(C)OC4[C@@H]2O)C13C(=O)O (single isomer, unassigned) | 31 µg/mL (≈ 59.8 µM) | 0.12 µg/mL (≈ 0.231 µM) | 0.12 µg/mL (≈ 0.231 µM) | 0.06 µg/mL (≈ 0.116 µM) | 1 µg/mL (≈ 1.93 µM) | 125 µg/mL (≈ 241 µM) | 0.5 µg/mL (≈ 0.964 µM)
CC(C)C1=CC2CC3(C=O)[C@@H]4CC[C@@H](C)[C@H]4CC2(CO[C@@H]2C[C@@H]4OC(C)(C)O[C@@H]4[C@@H](C)O2)C13C(=O)O (stereo partly specified) | > 125 µg/mL | 2 µg/mL (≈ 3.98 µM) | 4 µg/mL (≈ 7.96 µM) | 4 µg/mL (≈ 7.96 µM) | 16 µg/mL (≈ 31.8 µM) | > 125 µg/mL | –
CC(C)C1=CC2CC3(C=O)[C@@H]4CC[C@@H](C)[C@H]4CC2(CO[C@H]2C[C@@H]4OC(C)(C)CO[C@@H]4[C@@H](C)O2)C13C(=O)O (stereo partly specified) | > 125 µg/mL | 0.015 µg/mL (≈ 0.029 µM) | 0.25 µg/mL (≈ 0.484 µM) | 0.03 µg/mL (≈ 0.0581 µM) | 1 µg/mL (≈ 1.94 µM) | 31 µg/mL (≈ 60 µM) | 0.12 µg/mL (≈ 0.232 µM)
CC(C)C1=CC2CC3(C=O)[C@@H]4CC[C@@H](C)[C@H]4CC2(CO[C@@H]2O[C@H](C)[C@H]4OC(=S)OC4[C@@H]2O)C13C(=O)O (single isomer, unassigned) | 125 µg/mL (≈ 240 µM) | 31 µg/mL (≈ 59.5 µM) | 62 µg/mL (≈ 119 µM) | 31 µg/mL (≈ 59.5 µM) | > 125 µg/mL | 16 µg/mL (≈ 30.7 µM) | 62 µg/mL (≈ 119 µM)
CC(C)C1=CC2CC3(C=O)[C@@H]4CC[C@@H](C)[C@H]4CC2(CO[C@H]2C[C@@H]4OCO[C@@H]4[C@@H](C)O2)C13C(=O)O (stereo partly specified) | 16 µg/mL (≈ 33.7 µM) | 0.015 µg/mL (≈ 0.0316 µM) | 0.03 µg/mL (≈ 0.0632 µM) | 0.03 µg/mL (≈ 0.0632 µM) | 0.25 µg/mL (≈ 0.527 µM) | 0.5 µg/mL (≈ 1.05 µM) | 0.015 µg/mL (≈ 0.0316 µM)
CC(C)C1=CC2CC3(C=O)[C@@H]4CC[C@@H](C)[C@H]4CC2(CO[C@H]2C[C@@H]4OC(=S)O[C@@H]4[C@@H](C)O2)C13C(=O)O (stereo partly specified) | 16 µg/mL (≈ 31.7 µM) | 2 µg/mL (≈ 3.96 µM) | 2 µg/mL (≈ 3.96 µM) | 1 µg/mL (≈ 1.98 µM) | 125 µg/mL (≈ 248 µM) | 8 µg/mL (≈ 15.9 µM) | 8 µg/mL (≈ 15.9 µM)
C/C=C/C=C(\C)C(=O)O[C@H]1[C@H](O)[C@H](OCC23C[C@@H]4[C@H](C)CC[C@H]4C4(C=O)CC2C=C(C(C)C)C34C(=O)O)O[C@H](C)[C@H]1OC (stereo partly specified) | > 125 µg/mL | 0.015 µg/mL (≈ 0.025 µM) | 0.25 µg/mL (≈ 0.416 µM) | 0.03 µg/mL (≈ 0.0499 µM) | 0.06 µg/mL (≈ 0.0999 µM) | 0.25 µg/mL (≈ 0.416 µM) | 0.03 µg/mL (≈ 0.0499 µM)
CC(C)C1=CC2CC3(C=O)[C@@H]4CC[C@@H](C)[C@H]4CC2(CO[C@@H]2O[C@H](C)[C@H]4OC(C)(C)OC4[C@H]2O)C13C(=O)O (single isomer, unassigned) | > 125 µg/mL | 2 µg/mL (≈ 3.86 µM) | 8 µg/mL (≈ 15.4 µM) | 2 µg/mL (≈ 3.86 µM) | 31 µg/mL (≈ 59.8 µM) | > 125 µg/mL | 8 µg/mL (≈ 15.4 µM)
